Like-named read-outs stand apart in the source and are kept apart here. Marks after values point to notes of the source that are not given here.
Key:
CD1 mice [1] = assay: Anticonvulsant activity, 4-aminopyridine induced seizures; type: in vivo; conditions: Mus musculus; po.; read-out: 4-AP ED50
How it was run: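 Compounds were given by mouth in three doses to groups of ten male CD1 mice. Seizures were then provoked chemically, usually 60 min later. Clonic-tonic seizures and lethality were recorded.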

rats = assay: Inhibition of focal ischemia, middle cerebral artery occlusion (MCAO) test; type: in vivo
Procedure: The focal anti-ischemic activity of the compounds of formula (I) or (II) of the present invention was measured by the “middle cerebral artery occlusion” (MCAO) test (Bartus Stroke 11:2265 (1994) and Sydserff et al, Brit. J. Pharmacol. 114:1631 (1995)). […] After a histological process (TTC staining) 24 h later, the infarcted area was determined by a computer assisted scanner program and was compared to the results obtained in a control group treated with the vehicle.

Lewis rats [2] = assay: Autoimmune encephalomyelitis model, neurological (clinical) symptoms; type: in vivo; conditions: for Neurological symptoms (change, %): day 24 after immunization; for change in vivo at 15 mg/kg / change in vivo at 30 mg/kg / change in vivo at 0.2 mg/kg / change in vivo at 0.5 mg/kg / change in vivo at 1 mg/kg / change in vivo at 1.875 mg/kg / change in vivo at 3.75 mg/kg / change in vivo at 7.5 mg/kg: Rattus norvegicus, read-out: Neurological symptoms (change compared to controls, %)
Procedure: The compounds were administered intraperitoneally twice a day for 8 days, starting on day 10 after immunization and with an observation period until symptoms were present. 5-15 animals were used in each group. Their weights were 160-180 g (Lewis rats, female) and 180-220 g (Lewis rats, male). The activity of the compounds was determined according to the symptom score values, and compared to those of the control group (see Table 6). Histopathological investigations were carried out on the brain stem, the spinal cord, and the sciatic nerve (Gijbels et al., J. Clin. Invest. 94:2177 (1994)) using 5-10 animal/group.
Compounds of the invention were further investigated in the autoimmune encephalomyelitis model in rats as outlined in this description before, with the variance that 10 animals were used in each group, of weights 140-160 g (Lewis rats, female).

CD1 mice [3] = assay: Anti-tremor effect, oxotremorine induced tremor; type: in vivo; conditions: for ED50: Mus musculus, po., Litchfield-Wilcoxon, limits in brackets, read-out: ED50, tremor induced by Oxotremorin 1 mg/kg ip.
CD1 mice [4] = assay: Anti-tremor effect, harmaline induced tremor; type: in vivo; conditions: po., Litchfield-Wilcoxon, limits in brackets
epilepsy patients = conditions: Bialer et al.; cited from earlier work
Lewis rats [5] = assay: Autoimmune encephalomyelitis model, neurological (clinical) symptoms; type: in vivo; conditions: Rattus norvegicus, po, female rats, read-out: Neurological symptoms (change compared to controls, %); for change in vivo at 3.75 mg/kg: 3.75 mg/kg p.o.
[6] = 2 mg/kg iv. 6x in every 30 min, first treatment 120 min after occlusion
[7] = 2 mg/kg iv. 6x in every 30 min, first treatment 180 min after occlusion
[8] = ip, 15 mg/kg ip., female rats, 0-8 day
[9] = ip, 15 mg/kg ip., female rats, 0-14 day
[10] = ip, 15 mg/kg ip., male rats, 0-8 day
[11] = ip, 15 mg/kg ip., male rats, 0-14 day
[12] = ip, 1.875 mg/kg ip., female rats, 0-8 day
[13] = ip, 1.875 mg/kg ip., female rats, 0-14 day
[14] = ip, 3.75 mg/kg ip., female rats, 0-8 day
[15] = ip, 3.75 mg/kg ip., female rats, 0-14 day

With `CC(=O)N1N=C(c2ccc(N)cc2)c2cc3c(cc2C[C@H]1C)OCO3` [GYKI 53773, (R)-7-acetyl-5-(4-aminophenyl)-8,9-dihydro-8-methyl-7H-1,3-dioxolo[4,5-h][2,3]benzodiazepine, reference compound] the ED50 (CD1 mice [1]) was 8.4 mg/kg, the “Decrease of the infracted area in % compared to that of the control” value (from here on “Decrease of the infracted area in %”) (rats; 2 mg/kg iv. 6x in every 30 min, first treatment 30 min after occlusion) was 47* % and the “Decrease of the infracted area in %” value (rats; [6]) was 49** %. The “Decrease of the infracted area in %” value (rats; [7]) was 26%, the “Neurological symptoms (change, %)” value (Lewis rats [2]; 30 mg/kg ip., female rats) was −41% and the “Neurological symptoms (change, %)” value (Lewis rats [2]; 30 mg/kg ip., male rats) was −26%. The change in vivo at 15 mg/kg (Lewis rats [2]; [8]) was -60%, the change in vivo at 15 mg/kg (Lewis rats [2]; [9]) was -63% and the change in vivo at 15 mg/kg (Lewis rats [2]; [10]) was -8%. It also gave a change in vivo at 15 mg/kg (Lewis rats [2]; [11]) of 7%, a change in vivo at 30 mg/kg (Lewis rats [2]; ip, 30 mg/kg ip., female rats, 0-8 day) of -38% and a change in vivo at 30 mg/kg (Lewis rats [2]; ip, 30 mg/kg ip., female rats, 0-14 day) of -27%. For the same molecule, the change in vivo at 30 mg/kg (Lewis rats [2]; ip, 30 mg/kg ip., male rats, 0-8 day) was -43%, the change in vivo at 30 mg/kg (Lewis rats [2]; ip, 30 mg/kg ip., male rats, 0-14 day) was -29% and the ED50 (CD1 mice [3]) was 5.6 mg/kg. For the same molecule, the “ED50, tremor induced by Harmaline 40 mg/kg ip.” value (CD1 mice [4]) was 9.0(−7.4-10.9) mg/kg po and the “Activity in clinical trials on epilepsy patients” value (epilepsy patients) was “active”.
For `Cc1nnc(N2N=C(c3ccc(N)c(C)c3)c3cc4c(cc3C[C@H]2C)OCO4)s1` [Example 119, (R)-5-(4-amino-3-methylphenyl)-8-methyl-7-(5-methyl-1,3,4-thiadiazol-2-yl)-8,9-dihydro-7H-1,3-dioxolo-[4,5-h][2,3]benzodiazepine], the ED50 (CD1 mice [1]) was 2.68 mg/kg, the “Decrease of the infracted area in %” value (rats; 0.5 mg/kg iv. 6x in every 30 min, first treatment 120 min after occlusion) was 7% and the “Decrease of the infracted area in %” value (rats; 1 mg/kg iv. 6x in every 30 min, first treatment 120 min after occlusion) was 38%. For the same molecule, the “Decrease of the infracted area in %” value (rats; 1.5 mg/kg iv. 6x in every 30 min, first treatment 120 min after occlusion) was 51* %, the “Decrease of the infracted area in %” value (rats; 1.5 mg/kg iv. 6x in every 30 min, first treatment 180 min after occlusion) was 21% and the “Decrease of the infracted area in %” value (rats; [6]) was 56* %. The “Decrease of the infracted area in %” value (rats; [7]) was 44** %, the “Decrease of the infracted area in %” value (rats; 2.0 mg/kg iv. 6x in every 30 min, first treatment 240 min after occlusion) was 21% and the “Neurological symptoms (change, %)” value (Lewis rats [2]; 0.2 mg/kg i.p., female rats) was −37%. For the same molecule, the “Neurological symptoms (change, %)” value (Lewis rats [2]; 0.5 mg/kg i.p., female rats) was −35%, the “Neurological symptoms (change, %)” value (Lewis rats [2]; 0.5 mg/kg p.o., female rats) was −1% and the “Neurological symptoms (change, %)” value (Lewis rats [2]; 1.0 mg/kg i.p., female rats) was −72** %. The “Neurological symptoms (change, %)” value (Lewis rats [2]; 1.0 mg/kg p.o., female rats) was −23%, the “Neurological symptoms (change, %)” value (Lewis rats [2]; 1.875 mg/kg ip., female rats) was −71** % and the “Neurological symptoms (change, %)” value (Lewis rats [2]; 1.875 mg/kg p.o., female rats) was −50** %. For the same molecule, the “Neurological symptoms (change, %)” value (Lewis rats [2]; 3.75 mg/kg ip., female rats) was −90** %, the “Neurological symptoms (change, %)” value (Lewis rats [2]; 3.75 mg/kg p.o., female rats) was −61*** % and the change in vivo at 0.2 mg/kg (Lewis rats [2]; ip, 0.2 mg/kg i.p., female rats, 0-8 day) was -36%. The change in vivo at 0.2 mg/kg (Lewis rats [2]; ip, 0.2 mg/kg i.p., female rats, 0-14 day) was -37%, the change in vivo at 0.5 mg/kg (Lewis rats [2]; ip, 0.5 mg/kg i.p., female rats, 0-8 day) was -33% and the change in vivo at 0.5 mg/kg (Lewis rats [2]; ip, 0.5 mg/kg i.p., female rats, 0-14 day) was -35%. The change in vivo at 1 mg/kg (Lewis rats [2]; ip, 1.0 mg/kg i.p., female rats, 0-8 day) was -75%, the change in vivo at 1 mg/kg (Lewis rats [2]; ip, 1.0 mg/kg i.p., female rats, 0-14 day) was -72% and the change in vivo at 1.875 mg/kg (Lewis rats [2]; [12]) was -72%. The change in vivo at 1.875 mg/kg (Lewis rats [2]; [13]) was -71%, the change in vivo at 3.75 mg/kg (Lewis rats [2]; [14]) was -97% and the change in vivo at 3.75 mg/kg (Lewis rats [2]; [15]) was -90%. The change in vivo at 0.5 mg/kg (Lewis rats [2]; po, 0.5 mg/kg p.o., female rats, 0-8 day) was 2%, the change in vivo at 0.5 mg/kg (Lewis rats [2]; po, 0.5 mg/kg p.o., female rats, 0-14 day) was -1% and the change in vivo at 1 mg/kg (Lewis rats [2]; po, 1.0 mg/kg p.o., female rats, 0-8 day) was -20%. The change in vivo at 1.875 mg/kg (Lewis rats [2]; po, 1.875 mg/kg p.o., female rats, 0-8 day) was -50%, the change in vivo at 1.875 mg/kg (Lewis rats [2]; po, 1.875 mg/kg p.o., female rats, 0-14 day) was -50% and the ED50 (CD1 mice [3]) was 1.38 mg/kg. For the same molecule, the melting point was 158 to 160 °C, the change in vivo at 1 mg/kg (Lewis rats [5]; 1.0 mg/kg p.o., 0-14 day) was -23% and the change in vivo at 3.75 mg/kg (Lewis rats [5]; 0-8 day) was -64%. The change in vivo at 3.75 mg/kg (Lewis rats [5]; 0-14 day) was -61%.
With `Cc1nnc(N2N=C(c3ccc(N)cc3)c3cc4c(cc3C[C@H]2C)OCO4)s1` [Example 86, (R)-5-(4-Aminophenyl)-8-methyl-7-(5-methyl-1,3,4-thiadiazol-2-yl)-8,9-dihydro-7H-1,3-dioxolo-[4,5-h][2,3]benzodiazepine] the ED50 (CD1 mice [1]) was 10.1 mg/kg, the “Decrease of the infracted area in %” value (rats; 1 mg/kg iv. 6x in every 30 min, first treatment 180 min after occlusion) was 35* % and the “Neuroprotective activity when administered 3 h after the occlusion” value (rats; result in words) was “significant activity”. The “Neurological symptoms (change, %)” value (Lewis rats [2]; 1.875 mg/kg ip., female rats) was −42%, the “Neurological symptoms (change, %)” value (Lewis rats [2]; 1.875 mg/kg ip., male rats) was “+54%” and the “Neurological symptoms (change, %)” value (Lewis rats [2]; 3.75 mg/kg ip., female rats) was −21%. The “Neurological symptoms (change, %)” value (Lewis rats [2]; 3.75 mg/kg ip., male rats) was −72%, the “Neurological symptoms (change, %)” value (Lewis rats [2]; 7.5 mg/kg ip., female rats) was −62% and the “Neurological symptoms (change, %)” value (Lewis rats [2]; 7.5 mg/kg ip., male rats) was −66%. The “Neurological symptoms (change, %)” value (Lewis rats [2]; 15 mg/kg ip., female rats) was −85%, the “Neurological symptoms (change, %)” value (Lewis rats [2]; 15 mg/kg ip., male rats) was −67% and the change in vivo at 1.875 mg/kg (Lewis rats [2]; [12]) was -40%. The change in vivo at 1.875 mg/kg (Lewis rats [2]; [13]) was -39%, the change in vivo at 1.875 mg/kg (Lewis rats [2]; ip, 1.875 mg/kg ip., male rats, 0-8 day) was 5% and the change in vivo at 1.875 mg/kg (Lewis rats [2]; ip, 1.875 mg/kg ip., male rats, 0-14 day) was -8%. It also gave a change in vivo at 3.75 mg/kg (Lewis rats [2]; [14]) of -3%, a change in vivo at 3.75 mg/kg (Lewis rats [2]; [15]) of -18% and a change in vivo at 3.75 mg/kg (Lewis rats [2]; ip, 3.75 mg/kg ip., male rats, 0-8 day) of -70%. It also gave a change in vivo at 3.75 mg/kg (Lewis rats [2]; ip, 3.75 mg/kg ip., male rats, 0-14 day) of -77%, a change in vivo at 7.5 mg/kg (Lewis rats [2]; ip, 7.5 mg/kg ip., female rats, 0-8 day) of -62% and a change in vivo at 7.5 mg/kg (Lewis rats [2]; ip, 7.5 mg/kg ip., female rats, 0-14 day) of -66%. The change in vivo at 7.5 mg/kg (Lewis rats [2]; ip, 7.5 mg/kg ip., male rats, 0-8 day) was -65%, the change in vivo at 7.5 mg/kg (Lewis rats [2]; ip, 7.5 mg/kg ip., male rats, 0-14 day) was -70% and the change in vivo at 15 mg/kg (Lewis rats [2]; [8]) was -97%. It also gave a change in vivo at 15 mg/kg (Lewis rats [2]; [9]) of -85%, a change in vivo at 15 mg/kg (Lewis rats [2]; [10]) of -93% and a change in vivo at 15 mg/kg (Lewis rats [2]; [11]) of -67%. For the same molecule, the “Activity compared to the reference compound (histopathological and pharmacological investigations)” value (Lewis rats [2]; result in words) was “more active than the reference compound GYKI 53773”, the ED50 (CD1 mice [3]) was 4.3 mg/kg and the “Anti-tremor activity compared to the reference compounds” value (CD1 mice [3]; oxotremorine, GYKI 20039 and harmaline, result in words) was “more active than the reference compounds GYKI 53773 and GYKI 52466”. For the same molecule, the “ED50, tremor induced by Harmaline 40 mg/kg ip.” value (CD1 mice [4]) was 6.0(4.9-7.4) mg/kg po.

— patent publication US20070027143A1, “Novel substituted 2,3-benzodiazepine derivatives” (priority 2003, published 2007)
